Patent publication US20230203041A1, “ANTAGONISTS OF THE ADENOSINE A2A RECEPTOR” (AdoRx Therapeutics Limited, priority 2020, published 2023)
Where a name gives a salt, the structure may show the parent alone.

What was measured:
[1] = biological target: T1, human Adenosine A2b receptor (Homo sapiens, UniProt P29275); assay: Adenosine receptor TR-FRET binding assay (CA200645 displacement), A2b; settings: 30 nM CA200645, CHO cell membranes, 2 hours at room temperature
T1 construct: expressed in transfected cells; host or cells: CHO cell membranes
T1 sequence (P29275 1-332): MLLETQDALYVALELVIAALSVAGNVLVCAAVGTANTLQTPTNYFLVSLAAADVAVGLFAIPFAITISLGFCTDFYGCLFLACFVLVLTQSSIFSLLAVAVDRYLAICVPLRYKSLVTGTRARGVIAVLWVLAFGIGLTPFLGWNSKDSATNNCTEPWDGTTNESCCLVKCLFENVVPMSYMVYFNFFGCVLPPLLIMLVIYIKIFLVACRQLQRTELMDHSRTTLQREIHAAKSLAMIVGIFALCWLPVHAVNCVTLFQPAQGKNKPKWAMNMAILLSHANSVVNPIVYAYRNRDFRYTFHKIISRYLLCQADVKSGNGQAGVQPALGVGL

[2] = biological target: T2, human Adenosine A2a receptor (Homo sapiens, UniProt P29274); assay: Adenosine receptor TR-FRET binding assay (CA200645 displacement), A2a; settings: 100 nM CA200645, CHO cell membranes, 2 hours at room temperature
T2 construct: expressed in transfected cells; host or cells: CHO cell membranes

[3] = biological target: T3, human Adenosine A1 receptor (Homo sapiens, UniProt P30542); assay: Adenosine receptor TR-FRET binding assay (CA200645 displacement), A1
T3 sequence (P30542 1-326): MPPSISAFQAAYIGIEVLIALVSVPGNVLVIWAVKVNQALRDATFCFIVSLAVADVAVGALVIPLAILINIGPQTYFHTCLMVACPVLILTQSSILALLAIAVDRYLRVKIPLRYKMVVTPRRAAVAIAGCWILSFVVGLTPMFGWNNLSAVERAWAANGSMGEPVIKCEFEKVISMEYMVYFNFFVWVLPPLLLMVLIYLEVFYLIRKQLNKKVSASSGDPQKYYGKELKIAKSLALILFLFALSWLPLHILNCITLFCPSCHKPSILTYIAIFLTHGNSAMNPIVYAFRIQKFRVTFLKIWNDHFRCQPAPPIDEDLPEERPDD

[4] = biological target: T4, human Adenosine A3 receptor (Homo sapiens, UniProt P0DMS8); assay: Adenosine receptor TR-FRET binding assay (CA200645 displacement), A3
T4 sequence (P0DMS8 1-318): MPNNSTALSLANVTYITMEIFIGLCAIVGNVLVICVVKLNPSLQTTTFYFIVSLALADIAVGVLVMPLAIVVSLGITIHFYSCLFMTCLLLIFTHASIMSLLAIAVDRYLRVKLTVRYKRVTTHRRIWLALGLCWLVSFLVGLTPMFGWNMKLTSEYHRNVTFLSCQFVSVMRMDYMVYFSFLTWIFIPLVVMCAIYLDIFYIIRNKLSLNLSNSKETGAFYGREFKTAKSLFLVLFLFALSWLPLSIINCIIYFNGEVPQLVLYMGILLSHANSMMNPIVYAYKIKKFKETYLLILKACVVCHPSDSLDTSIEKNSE
Protocol: All FRET binding experiments were conducted at room temperature in white 384-well plates, in assay binding buffer containing 1×LabMed (Cisbio, France), 100 μg/mL saponin, 1% DMSO and 0.02% pluronic acid. Binding of the fluorescently labelled Adenosine receptor antagonist XAC (CA200645, FRET acceptor) to terbium-labelled A1, A2a, A2b and A3 adenosine receptors (FRET donors) was detected by time-resolved FRET due to the close proximity of the donor and acceptor in a binding event. To investigate the ability of unlabelled test compounds to bind to Adenosine A1, A2a, A2b and A3 receptors, dose response curves were constructed that determined the ability of a range of concentrations to inhibit the binding of 30 nM CA200645 to the A2b receptor and 100 nM CA200645 to the A1, A2a, and A3 receptor.
Serial dilution (1:3 dilutions) of test compounds in neat DMSO and transfer of a 400 nL sample of test compound into the assay plate was carried out using the Mosquito (TTP Labtech, UK). The compound samples were incubated for 2 hours at room temperature with a fixed concentration of CA200645 defined for each receptor (see above) and CHO cell membranes containing the human Adenosine A1 (0.5 μg/well), A2a (0.3 μg/well), A2b (1 μg/well) or A3 (1 μg/well) receptor in 40 μL of assay buffer. Total and non-specific binding of CA200645 was determined in the absence and presence of 10 μM XAC, respectively. Following 2 hours incubation, the level of CA200645 binding was detected on a Pherastar FSX (BMG Labtech, Germany) using standard TR-FRET settings. The terbium donor was excited with three laser flashes at a wavelength of 337 nm, and donor and acceptor emission was detected at 620 nm and 665 nm wavelengths, respectively. FRET ratios were obtained by multiplying the acceptor/donor ratio value by 10,000. Specific binding was determined by subtracting the non-specific binding FRET ratio from the total binding FRET ratio. Compound IC50 curves were analysed using GraphPad Prism 7.0 (GraphPad, USA) and Ki affinity values were determined from the obtained IC50 values using the method of Cheng and Prusoff.

T2 sequence (P29274 whole entry): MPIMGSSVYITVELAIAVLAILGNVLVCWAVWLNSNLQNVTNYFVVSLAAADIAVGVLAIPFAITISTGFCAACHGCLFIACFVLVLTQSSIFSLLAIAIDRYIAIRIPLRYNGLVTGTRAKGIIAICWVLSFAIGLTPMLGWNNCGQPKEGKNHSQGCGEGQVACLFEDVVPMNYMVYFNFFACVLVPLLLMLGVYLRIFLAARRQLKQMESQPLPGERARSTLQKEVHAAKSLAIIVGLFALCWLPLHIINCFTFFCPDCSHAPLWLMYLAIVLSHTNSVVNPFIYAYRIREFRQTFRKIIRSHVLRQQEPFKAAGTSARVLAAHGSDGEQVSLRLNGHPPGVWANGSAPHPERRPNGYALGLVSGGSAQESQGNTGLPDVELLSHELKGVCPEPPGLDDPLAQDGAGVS

## Cc1cc(-c2c(-c3cccc(C#N)c3)nn3ccc(N/C(N)=N\C#N)nc23)cc(Cl)n1 [Example 32, 1-[3-(2-Chloro-6-methyl-4-pyridyl)-2-(3-cyanophenyl)pyrazolo[1,5-a]pyrimidin-5-yl]-2-cyano-guanidine]
[1]
  Ki: 53 nM
[2]
  Ki: 17.4 nM
[3]
  Ki: 800 nM
[4]
  Ki: > 1000 nM

## CCn1nccc1-c1c(-c2cccc(C#N)c2)nn2ccc(NCC(C)(C)O)nc12 [Example 33, 3-[3-(2-Ethylpyrazol-3-yl)-5-[(2-hydroxy-2-methyl-propyl)amino]pyrazolo[1,5-a]pyrimidin-2-yl]benzonitrile]
[1]
  Ki: 28 nM
[2]
  Ki: 13.1 nM
[3]
  Ki: 118 nM
[4]
  Ki: > 1000 nM

## CCn1nccc1-c1c(-c2cccc(C#N)c2)nn2ccc(N3CCN(C)C(CO)C3)nc12 (stereo not drawn) [Example 33.1]
[1]
  Ki: 62 nM
[2]
  Ki: 14.9 nM
[3]
  Ki: 184 nM
[4]
  Ki: > 1000 nM

## CCn1nccc1-c1c(-c2cccc(C#N)c2)nn2ccc(N3CC4CCC(C3)O4)nc12 [Example 33.2]
[1]
  Ki: 159 nM
[2]
  Ki: 15.2 nM
[3]
  Ki: 126 nM
[4]
  Ki: > 1000 nM

## CCn1nccc1-c1c(-c2cccc(C#N)c2)nn2ccc(N3CC4CCC(C3)N4C)nc12 [Example 33.3]
[1]
  Ki: 710 nM
[2]
  Ki: 28.6 nM
[3]
  Ki: 67 nM
[4]
  Ki: > 1000 nM

## CCn1nccc1-c1c(-c2cccc(C#N)c2)nn2ccc(N3CCN(S(C)(=O)=O)CC3)nc12 [Example 33.4]
[1]
  Ki: 120 nM
[2]
  Ki: 48.6 nM
[3]
  Ki: 254 nM
[4]
  Ki: > 1000 nM

## CCn1nccc1-c1c(-c2cccc(C#N)c2)nn2ccc(NCc3nnc[nH]3)nc12 [Example 33.5]
[1]
  Ki: 17 nM
[2]
  Ki: 91.9 nM
[3]
  Ki: 124 nM
[4]
  Ki: > 1000 nM

## CCn1nccc1-c1c(-c2cccc(C#N)c2)nn2ccc(N3CCNCC3)nc12 [Example 33.6]
[1]
  Ki: 61 nM
[2]
  Ki: 134 nM
[3]
  Ki: 898 nM
[4]
  Ki: > 1000 nM

## CCn1nccc1-c1c(-c2cccc(C#N)c2)nn2ccc(N3CCS(=N)(=O)CC3)nc12 [Example 33.7]
[1]
  Ki: 416 nM
[2]
  Ki: 440 nM
[3]
  Ki: 1800 nM
[4]
  Ki: > 1000 nM

## CC(C)(C)OC(=O)N1CCC[C@H]1CNc1ccn2nc(-c3ccco3)c(C#N)c2n1 [Example 37.4]
[1]
  Ki: 1750 nM
[2]
  Ki: 29.8 nM
[3]
  Ki: 38 nM
[4]
  Ki: 771 nM

## CC(C)(C)OC(=O)N1CCO[C@H](CNc2ccn3nc(-c4ccco4)c(C#N)c3n2)C1 [Example 37.5]
[1]
  Ki: 1100 nM
[2]
  Ki: 33.2 nM
[3]
  Ki: 133 nM
[4]
  Ki: 1740 nM

## N#Cc1c(-c2ccco2)nn2ccc(NCC3CCN(Cc4ccccc4)CC3)nc12 [Example 37.9]
[1]
  Ki: 36 nM
[2]
  Ki: 69.5 nM
[3]
  Ki: 398 nM
[4]
  Ki: > 1000 nM

## C[C@@H]1CN(c2ccn3nc(-c4ccco4)c(C#N)c3n2)CCN1C(=O)OC(C)(C)C [Example 37.10, tert-butyl (2R)-4-[3-cyano-2-(2-furyl)pyrazolo[1,5-a]pyrimidin-5-yl]-2-methyl-piperazine-1-carboxylate]
[1]
  Ki: 5040 nM
[2]
  Ki: 76 nM
[3]
  Ki: 1760 nM
[4]
  Ki: 2880 nM

## N#Cc1c(-c2ccco2)nn2ccc(NCCN3CCN(Cc4ccccc4)CC3)nc12 [Example 37.12]
[1]
  Ki: 1320 nM
[2]
  Ki: 310 nM
[3]
  Ki: 319 nM
[4]
  Ki: 923 nM

## Cc1cccnc1CNc1ccn2nc(-c3ccco3)c(C(N)=O)c2n1 [Example 38, 2-(2-Furyl)-5-[(3-methyl-2-pyridyl)methylamino]pyrazolo[1,5-a]pyrimidine-3-carboxamide]
[1]
  Ki: 971 nM
[2]
  Ki: 10.5 nM
[3]
  Ki: 158 nM
[4]
  Ki: 1010 nM

## CC(C)(C)OC(=O)N1CC=C(c2ccn3nc(-c4ccco4)c(C#N)c3n2)CC1 [Example 40, tert-butyl 4-[3-cyano-2-(2-furyl)pyrazolo[1,5-a]pyrimidin-5-yl]-3,6-dihydro-2H-pyridine-1-carboxylate]
[1]
  Ki: 5500 nM
[2]
  Ki: 93.6 nM
[3]
  Ki: 1950 nM
[4]
  Ki: 1770 nM

## N#Cc1c(-c2ccco2)nn2ccc(N3CCNCC3)nc12 [Example 41, 2-(2-Furyl)-5-piperazin-1-yl-pyrazolo[1,5-a]pyrimidine-3-carbonitrile]
[1]
  Ki: 2230 nM
[2]
  Ki: 237 nM
[3]
  Ki: 1570 nM
[4]
  Ki: 5140 nM

## N#Cc1c(-c2ccco2)nn2ccc(NC[C@@H]3CNCCO3)nc12 [Example 42, 2-(2-Furyl)-5-[[(2S)-morpholin-2-yl]methylamino]pyrazolo[1,5-a]pyrimidine-3-carbonitrile hydrochloride]
[1]
  Ki: 3060 nM
[2]
  Ki: 345 nM
[3]
  Ki: 313 nM
[4]
  Ki: > 1000 nM

## N#Cc1c(-c2ccco2)nn2ccc(NC[C@H]3CNCCO3)nc12 [Example 42.1, 2-(2-Furyl)-5-[[(2R)-morpholin-2-yl]methylamino]pyrazolo[1,5-a]pyrimidine-3-carbonitrile hydrochloride]
[1]
  Ki: 4450 nM
[2]
  Ki: 410 nM
[3]
  Ki: 680 nM
[4]
  Ki: > 1000 nM

## N#Cc1c(-c2ccco2)nn2ccc(N3CCN(Cc4ccccc4)CC3)nc12 [Example 43, 5-(4-Benzylpiperazin-1-yl)-2-(2-furyl)pyrazolo[1,5-a]pyrimidine-3-carbonitrile]
[1]
  Ki: 1860 nM
[2]
  Ki: 16.4 nM
[3]
  Ki: 278 nM
[4]
  Ki: > 1000 nM

## N#Cc1c(-c2ccco2)nn2ccc(N)nc12 [Example 49, 5-Amino-2-(2-furyl)pyrazolo[1,5-a]pyrimidine-3-carbonitrile]
[1]
  Ki: 2220 nM
[2]
  Ki: 147 nM
[3]
  Ki: 172 nM
[4]
  Ki: 3960 nM

## Cn1nccc1-c1c(-c2ccco2)nn2ccc(NCc3ccccc3)nc12 [Example 53.1, N-benzyl-2-(2-furyl)-3-(2-methylpyrazol-3-yl)pyrazolo[1,5-a]pyrimidin-5-amine]
[1]
  Ki: 129 nM
[2]
  Ki: 48.6 nM
[3]
  Ki: 34 nM
[4]
  Ki: 174 nM

## N#Cc1c(-c2ccco2)nn2ccc(NCCCO)nc12 [Example 55.1, 2-(2-Furyl)-5-(3-hydroxypropylamino)pyrazolo[1,5-a]pyrimidine-3-carbonitrile]
[1]
  Ki: 1740 nM
[2]
  Ki: 103 nM
[3]
  Ki: 355 nM
[4]
  Ki: 8460 nM

## N#Cc1c(-c2ccco2)nn2ccc(NCCO)nc12 [Example 55.2, 2-(2-furyl)-5-(2-hydroxyethylamino)pyrazolo[1,5-a]pyrimidine-3-carbonitrile]
[1]
  Ki: 1700 nM
[2]
  Ki: 244 nM
[3]
  Ki: 284 nM
[4]
  Ki: 4180 nM

## N#Cc1c(-c2ccco2)nn2ccc(NC[C@H]3CCCNC3)nc12 [Example 56, 2-(2-Furyl)-5-(3-piperidylmethylamino)pyrazolo[1,5-a]pyrimidine-3-carbonitrile hydrochloride]
[1]
  Ki: 2700 nM
[2]
  Ki: 141 nM
[3]
  Ki: 521 nM
[4]
  Ki: > 1000 nM

## N#Cc1c(-c2ncco2)nn2ccc(NCc3ccccc3)nc12 [Example 57, 5-(Benzylamino)-2-oxazol-2-yl-pyrazolo[1,5-a]pyrimidine-3-carbonitrile]
[1]
  Ki: 1490 nM
[2]
  Ki: 24.7 nM
[3]
  Ki: 236 nM
[4]
  Ki: 1870 nM

## Cc1cccnc1CN1CCN(c2ccn3nc(-c4cccc(F)c4)c(C#N)c3n2)CC1 [Example 60, 2-(3-Fluorophenyl)-5-[4-[(3-methyl-2-pyridyl)methyl]piperazin-1-yl]pyrazolo[1,5-a]pyrimidine-3-carbonitrile]
[1]
  Ki: 4600 nM
[2]
  Ki: 33.9 nM
[3]
  Ki: 27 nM
[4]
  Ki: 1000 nM
